Measured values reported in ChEMBL document CHEMBL5252648, “Design, synthesis and bioactivity evaluation of a series of quinazolinone derivatives as potent PI3Kγ antagonist” (Bioorg Med Chem, 2023).
pIC50: −log10 of the molar value.

Legend:
[1] = biological target: T1, Phosphatidylinositol 4,5-bisphosphate 3-kinase catalytic subunit delta isoform (Homo sapiens) (UniProt O00329); assay: Antagonist activity at PI3Kdelta (unknown origin) assessed as inhibition rate at 20 nM using PIP2 as substrate in presence of ATP incubated for 30 to 60 mins by ADP-glo based luminescence assay relative to control; settings: time 30-60 min
T1 sequence (whole entry): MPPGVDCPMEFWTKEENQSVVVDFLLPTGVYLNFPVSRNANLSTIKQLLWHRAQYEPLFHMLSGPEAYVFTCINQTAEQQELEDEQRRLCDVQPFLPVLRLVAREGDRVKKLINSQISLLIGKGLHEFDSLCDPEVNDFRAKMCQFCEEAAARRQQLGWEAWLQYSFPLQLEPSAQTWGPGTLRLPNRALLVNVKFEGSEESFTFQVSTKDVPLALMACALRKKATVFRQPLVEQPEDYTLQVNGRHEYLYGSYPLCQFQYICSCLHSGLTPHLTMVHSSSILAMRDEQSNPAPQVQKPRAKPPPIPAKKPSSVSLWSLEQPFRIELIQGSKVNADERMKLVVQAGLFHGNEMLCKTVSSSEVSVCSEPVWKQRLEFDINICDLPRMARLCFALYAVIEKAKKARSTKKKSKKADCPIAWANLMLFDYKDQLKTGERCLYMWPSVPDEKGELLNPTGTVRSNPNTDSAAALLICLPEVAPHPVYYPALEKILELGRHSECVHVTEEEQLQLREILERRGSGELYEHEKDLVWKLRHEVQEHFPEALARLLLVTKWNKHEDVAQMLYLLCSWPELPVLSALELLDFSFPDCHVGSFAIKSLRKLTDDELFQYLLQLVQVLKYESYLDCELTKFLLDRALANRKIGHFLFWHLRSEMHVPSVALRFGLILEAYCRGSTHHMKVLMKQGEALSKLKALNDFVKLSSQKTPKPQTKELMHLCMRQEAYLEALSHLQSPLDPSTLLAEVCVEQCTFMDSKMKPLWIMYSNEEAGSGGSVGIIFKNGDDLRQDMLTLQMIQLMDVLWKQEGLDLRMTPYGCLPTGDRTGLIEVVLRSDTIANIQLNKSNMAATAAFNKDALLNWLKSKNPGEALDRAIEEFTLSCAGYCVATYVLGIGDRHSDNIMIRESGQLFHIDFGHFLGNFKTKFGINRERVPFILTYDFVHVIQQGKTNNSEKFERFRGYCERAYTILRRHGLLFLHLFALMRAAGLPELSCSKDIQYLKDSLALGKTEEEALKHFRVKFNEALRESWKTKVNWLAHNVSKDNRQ

[2] = biological target: Phosphatidylinositol 4,5-bisphosphate 3-kinase catalytic subunit gamma isoform (Homo sapiens, UniProt P48736); assay: Antagonist activity at PI3Kgamma (unknown origin) assessed as inhibition rate at 20 nM using PIP2 as substrate in presence of ATP incubated for 30 to 60 mins by ADP-glo based luminescence assay relative to control; settings: time 30-60 min
Phosphatidylinositol 4,5-bisphosphate 3-kinase catalytic subunit gamma isoform, sequence (P48736 whole entry, looked up, canonical isoform): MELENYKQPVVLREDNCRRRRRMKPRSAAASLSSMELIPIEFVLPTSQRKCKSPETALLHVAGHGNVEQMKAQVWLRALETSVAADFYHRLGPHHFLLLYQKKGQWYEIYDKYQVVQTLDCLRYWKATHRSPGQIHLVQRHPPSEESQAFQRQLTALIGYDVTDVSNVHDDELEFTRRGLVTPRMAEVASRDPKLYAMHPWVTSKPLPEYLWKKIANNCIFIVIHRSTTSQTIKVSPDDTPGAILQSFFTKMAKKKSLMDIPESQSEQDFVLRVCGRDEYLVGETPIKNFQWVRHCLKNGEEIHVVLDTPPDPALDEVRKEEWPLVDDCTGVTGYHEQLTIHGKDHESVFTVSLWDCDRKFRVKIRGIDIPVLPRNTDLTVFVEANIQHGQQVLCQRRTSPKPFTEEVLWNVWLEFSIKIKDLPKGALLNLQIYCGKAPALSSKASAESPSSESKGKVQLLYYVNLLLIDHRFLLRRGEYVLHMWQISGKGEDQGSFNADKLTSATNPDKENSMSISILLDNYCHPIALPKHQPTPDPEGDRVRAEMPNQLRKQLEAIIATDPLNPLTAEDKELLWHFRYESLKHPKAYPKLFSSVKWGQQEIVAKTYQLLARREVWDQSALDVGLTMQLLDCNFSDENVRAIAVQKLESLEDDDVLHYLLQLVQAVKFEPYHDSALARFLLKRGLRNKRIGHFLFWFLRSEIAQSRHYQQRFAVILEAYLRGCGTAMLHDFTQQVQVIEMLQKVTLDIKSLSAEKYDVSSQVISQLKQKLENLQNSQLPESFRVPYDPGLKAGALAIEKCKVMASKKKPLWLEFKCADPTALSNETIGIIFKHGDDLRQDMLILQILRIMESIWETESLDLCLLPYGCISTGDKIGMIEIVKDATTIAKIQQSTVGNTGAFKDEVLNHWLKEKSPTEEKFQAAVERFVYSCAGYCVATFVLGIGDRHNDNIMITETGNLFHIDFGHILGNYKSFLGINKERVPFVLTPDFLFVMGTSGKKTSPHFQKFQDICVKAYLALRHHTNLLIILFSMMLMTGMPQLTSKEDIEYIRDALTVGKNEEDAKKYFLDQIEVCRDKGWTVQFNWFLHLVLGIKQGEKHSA

Jurkat = assay: Cytotoxicity against human Jurkat cells assessed as reduction in cell viability incubated for 24 hrs by CCK-8 assay; type: functional, cell-based
RAW264.7 = assay: Cytotoxicity against mouse RAW264.7 cells assessed as reduction in cell viability incubated for 24 hrs by CCK-8 assay; type: functional, cell-based; settings: RAW264.7, 24 h
THP-1 = assay: Cytotoxicity against human THP-1 cells assessed as reduction in cell viability incubated for 24 hrs by CCK-8 assay; type: functional, cell-based; settings: THP-1, 24 h
MDA-MB-231 = assay: Cytotoxicity against human MDA-MB-231 cells assessed as reduction in cell viability incubated for 24 hrs by CCK-8 assay; type: functional, cell-based; settings: MDA-MB-231, 24 h
4T1 = assay: Cytotoxicity against mouse 4T1 cells assessed as reduction in cell viability incubated for 24 hrs by CCK-8 assay; type: functional, cell-based; settings: 4T1, 24 h
T47D = assay: Cytotoxicity against human T47D cells assessed as reduction in cell viability incubated for 24 hrs by CCK-8 assay; type: functional, cell-based
A549 = assay: Cytotoxicity against human A549 cells assessed as reduction in cell viability incubated for 24 hrs by CCK-8 assay; type: functional, cell-based; settings: A549, 24 h
HepG2 = assay: Cytotoxicity against human HepG2 cells assessed as reduction in cell viability incubated for 24 hrs by CCK-8 assay; type: functional, cell-based; settings: HepG2, 24 h
B16-F10 = assay: Cytotoxicity against mouse B16-F10 cells assessed as reduction in cell viability incubated for 24 hrs by CCK-8 assay; type: functional, cell-based; settings: B16-F10, 24 h
MCF7 = assay: Cytotoxicity against human MCF7 cells assessed as reduction in cell viability incubated for 24 hrs by CCK-8 assay; type: functional, cell-based; settings: MCF7, 24 h
Huh-7 = assay: Cytotoxicity against human Huh-7 cells assessed as reduction in cell viability incubated for 24 hrs by CCK-8 assay; type: functional, cell-based; settings: Huh-7, 24 h
[3] = Cytotoxicity against mouse L929 cells assessed as reduction in cell viability incubated for 24 hrs by CCK-8 assay; type: toxicity, cell-based

inhibition [1] [%] | inhibition [2] [%] | SMILES | also measured
3 | 2 | CC(NC(=O)c1cncc2ccccc12)c1cc2cccc(Cl)c2c(=O)n1-c1ccccc1 (stereo not drawn) | –
23 | – | CC(Nc1ncnc2[nH]cnc12)c1cc2cccc(C#Cc3ccccc3)c2c(=O)n1-c1ccccc1 (stereo not drawn) | inhibition ([2]; filed as antagonist): 51%
– | 37 | C[C@H](Nc1ncnc2nc[nH]c12)c1cc2cccc(Cl)c2c(=O)n1-c1ccccc1 [DUVELISIB] | inhibition ([1]; filed as antagonist): 66.7%; pIC50 (Jurkat): 5.50; pIC50 (RAW264.7): 4.88; pIC50 (THP-1): 4.83; pIC50 (MDA-MB-231): 5.01; pIC50 (4T1): 4.64; pIC50 (T47D): < 4.00; pIC50 (A549): < 4.00; pIC50 (HepG2): < 4.00; pIC50 (B16-F10): < 4.00; pIC50 (MCF7): < 4.00; pIC50 (Huh-7): 5.18
32 | 9 | CC(NC(=O)c1cccc2c1OCCO2)c1cc2cccc(Cl)c2c(=O)n1-c1ccccc1 (stereo not drawn) | –
27 | 22 | CCCc1ccc(C#Cc2cccc3cc(C(C)NC(=O)c4c(N)nn5cccnc45)n(-c4ccccc4)c(=O)c23)cc1 (stereo not drawn) | –
13 | 36 | CC(NC(=O)c1cnn2cccnc12)c1cc2cccc(Cl)c2c(=O)n1-c1ccccc1 (stereo not drawn) | –
25 | 25 | COc1ccc(C#Cc2cccc3cc(C(C)NC(=O)c4cnn5cccnc45)n(-c4ccccc4)c(=O)c23)cc1 (stereo not drawn) | –
14 | 13 | CC(NC(=O)c1cncc(N2CCOCC2)n1)c1cc2cccc(Cl)c2c(=O)n1-c1ccccc1 (stereo not drawn) | –
25 | 27 | CC(NC(=O)c1c(N)nn2cccnc12)c1cc2cccc(C#Cc3ccccc3)c2c(=O)n1-c1ccccc1 (stereo not drawn) | –
19 | 31 | COc1ccc(C#Cc2cccc3cc(C(C)NC(=O)c4c(N)nn5cccnc45)n(-c4ccccc4)c(=O)c23)cc1 (stereo not drawn) | –
– | – | C[C@H](Nc1ncnc2[nH]cnc12)c1cc2cccc(Cl)c2c(=O)n1-c1ccccc1 [DUVELISIB] | IC50 at 24 h [3]: > 100 µM
17 | 37 | CC(NC(=O)c1c(N)nn2cccnc12)c1cc2cccc(C#Cc3ccc(C(F)(F)F)cc3)c2c(=O)n1-c1ccccc1 (stereo not drawn) | –
14 | – | CC(Nc1ncnc2[nH]cnc12)c1cc2cccc(C#Cc3ccc(N(C)C)cc3)c2c(=O)n1-c1ccccc1 (stereo not drawn) | inhibition ([2]; filed as antagonist): 46%
14 | – | CC(Nc1ncnc2[nH]cnc12)c1cc2cccc(C#Cc3ccc(C(F)(F)F)cc3)c2c(=O)n1-c1ccccc1 (stereo not drawn) | inhibition ([2]; filed as antagonist): 44%
17 | 33 | CC(NC(=O)c1c(N)nn2cccnc12)c1cc2cccc(C#CC3CC3)c2c(=O)n1-c1ccccc1 (stereo not drawn) | –
28 | 22 | CC(NC(=O)c1cnn2cccnc12)c1cc2cccc(C#Cc3ccc(N(C)C)cc3)c2c(=O)n1-c1ccccc1 (stereo not drawn) | –
26 | – | COCC#Cc1cccc2cc(C(C)Nc3ncnc4[nH]cnc34)n(-c3ccccc3)c(=O)c12 (stereo not drawn) | inhibition ([2]; filed as antagonist): 41%
22 | 24 | CC(NC(=O)c1cnn2cccnc12)c1cc2cccc(C#Cc3ccccc3)c2c(=O)n1-c1ccccc1 (stereo not drawn) | –
8 | 11 | CC(NC(=O)c1ccc2occc2c1)c1cc2cccc(Cl)c2c(=O)n1-c1ccccc1 (stereo not drawn) | –
28 | 35 | CC(Nc1ncnc2c1ncn2C)c1cc2cccc(Cl)c2c(=O)n1-c1ccccc1 (stereo not drawn) | –
25 | 38 | CC(NC(=O)c1c(N)nn2cccnc12)c1cc2cccc(C#CCN)c2c(=O)n1-c1ccccc1 (stereo not drawn) | –
– | 27 | CC(NC(=O)c1cnn2cccnc12)c1cc2cccc(C#Cc3ccc(C(F)(F)F)cc3)c2c(=O)n1-c1ccccc1 (stereo not drawn) | inhibition ([1]; filed as antagonist): 40%
18 | 28 | CC(NC(=O)c1c(N)nn2cccnc12)c1cc2cccc(C#Cc3ccc(N(C)C)cc3)c2c(=O)n1-c1ccccc1 (stereo not drawn) | –
8 | 13 | CCCc1ccc(C#Cc2cccc3cc(C(C)Nc4ncnc5[nH]cnc45)n(-c4ccccc4)c(=O)c23)cc1 (stereo not drawn) | –
24 | 33 | CC(NC(=O)c1ccncc1N)c1cc2cccc(Cl)c2c(=O)n1-c1ccccc1 (stereo not drawn) | –
29 | 24 | CCCC#Cc1cccc2cc(C(C)NC(=O)c3c(N)nn4cccnc34)n(-c3ccccc3)c(=O)c12 (stereo not drawn) | –
– | – | CC(Nc1ncnc2[nH]cnc12)c1cc2cccc(C#CC3CC3)c2c(=O)n1-c1ccccc1 (stereo not drawn) | inhibition ([1]; filed as antagonist): 44%; inhibition ([2]; filed as antagonist): 43%
21 | 33 | CCCCC#Cc1cccc2cc(C(C)Nc3ncnc4[nH]cnc34)n(-c3ccccc3)c(=O)c12 (stereo not drawn) | –
27 | 35 | COCC#Cc1cccc2cc(C(C)NC(=O)c3c(N)nn4cccnc34)n(-c3ccccc3)c(=O)c12 (stereo not drawn) | –
